Data taken from patent publication US20190314345A1, “CALCINEURIN INHIBITOR AND NON-STEROIDAL ANTI-INFLAMMATORY DRUG TO REDUCE RISK OF POST-IMAGING PANCREATITIS” (UNIVERSITY OF PITTSBURGH - OF THE COMMONWEALTH SYSTEM OF …, priority 2016, published 2019).

Tests used:
[1] = test system: NF-κB; assay: NF-κB-luciferase activity assay in AR42J cells; format: cell-based; settings: for effect on RC-induced NF-κB luciferase levels: U73122 5 μM, 2-APB 100 μM, BAPTA 64 μM
Description: AR42J cells were differentiated towards an acinar phenotype by administering dexamethasone (100 nM) for 48-72 hr^17. AR42J cells were infected with Ad-NF-κB luciferase 16 h prior to stimulation using a previously described method^12. Following a wash with DMEM/F12 medium, acinar cells were evenly distributed in a 48-well plate and incubated for 30 min at 37° C. They were incubated with RC at varying concentrations and times. NF-κB-luciferase was measured using a commercially available luciferase assay (Promega, Madison, Wis.). Briefly, cells were spun at 1,000 rpm for 5 min, washed with PBS, and lysed using reporter lysis 5× buffer (Promega, catalog no. E397A). Samples were vortexed and spun at 12,000×g for 2 min. The supernatant was plated, and luminescence was measured using a Synergy H1 plate reader (BioTek, Winooski, Vt.) and normalized to […].

[2] = high-affinity Ca2+-sensing dye; cited from earlier work
[3] = test system: PEP model in mice; assay: Intra-ductal RC infusion PEP model in mice: histological severity, serum amylase; format: in vivo, mouse
From the text: The procedure for retrograde infusion into the CBD and pancreatic duct has been described before^14. Briefly, Swiss Webster mice were anesthetized with isoflurane. A midline incision was made to reveal the abdominal cavity. The duodenum was flipped to reveal its distal side and held in place by ligatures. […] needle was inserted through the anti-mesenteric aspect of the duodenum to cannulate the CBD. A small bull dog clamp was applied to the distal CBD (near the duodenum) to prevent back flow of the infusate into the duodenal lumen and to hold the cannula in place. A larger bull dog clamp was applied to the proximal CBD (near the liver) to prevent infusion into the liver and thus to direct flow to the pancreatic duct. Total volumes of 50-100 μl of iohexol, iopamidol, or normal saline (NS) were infused at 10-20 μl per min for 5 min using a P33 perfusion pump (Harvard Apparatus, Holliston, Mass.). Upon completion of the infusion, the bull dog clamps were released. The exterior abdominal wound was closed using 7 mm wound clips, and a single injection of buprenorphine (0.075 mg/kg) was given immediately after the surgery. Mice recovered on a heating pad for 30 min after the procedure. They were given free access to food and water after the surgery. The pancreas, duodenum, and spleen were fixed at room temperature for 24 hr in 4% paraformaldehyde. Paraffin-embedded sections were stained with hematoxylin an eosin (HE) and graded using a 20× objective over 10 separate fields in a blinded fashion. Pancreas tissue was graded for edema, inflammatory infiltrate, and necrosis as described by Wildi et al.^67. Whole blood samples were centrifuged at 1500×g for 5 min at 4° C. Serum amylase was measured using a Phadebas kit (Amersham Pharmacia, Rochester N.Y.) as previously described^68.

[4] = test system: calcineurin; assay: NFAT-luciferase activity assay in AR42J cells; format: cell-based; settings: for effect on RC (6%)-induced NFAT-luciferase activity: pretreatment, FK506 24 μM, CsA 16 μM, U73122 5 μM, 2-APB 100 μM, BAPTA 64 μM
Description: (§1) Acinar cells were infected with Ad-NFAT-luciferase following a previously described procedure^10, 15, 16. The construct includes a luciferase gene placed downstream of an IL-4 promoter which contains nine tandem NFAT binding sites^10. Acinar cells were incubated with the NFAT-driven luciferase adenovirus for 1.5 hr prior to stimulation. All of the stated inhibitors were added for 30 min prior to stimulation with RC. NFAT-luciferase was measured using the luciferase assay system. Briefly, cells were spun at 1,000 rpm for 5 min, washed with PBS, and lysed using reporter lysis 5× buffer (Promega #E397A, Madison, Wis.). Samples were vortexed and spun at 12,000 g for 2 min. Supernatant was plated, and luminescence was measured using a Synergy H1 plate reader (BioTek, Winooski, Vt.) and normalized to total protein.

[5] = test system: primary acinar cells; assay: Cell necrosis assay (propidium iodide uptake) in primary acinar cells; format: cell-based, mouse; settings: for effect on RC (12%)-induced acinar cell injury (PI uptake): 6 hr incubation, U73122 5 μM, 2-APB 100 μM, BAPTA 64 μM, IKK-2 20 μM, FK506 24 μM, CsA 16 μM
Description: Acinar cells were incubated in a 48-well plate with 50 μg/ml of propidium iodide (PI) for 30 min prior to addition of RC. Fluorescence was measured at 536 nm excitation and 617 nm emission wavelengths over time a time course of up to 6 hr. Fluorescence was measured after cell lysis with 0.5% Triton-X 100 was used to normalize the results relative to total DNA.

[6] = test system: AR42J cells; assay: Ca2+ signals (Fluo-4AM) in AR42J cells; format: cell-based; settings: U73122 5 μM, 2-APB 100 μM
Description: FIG. 7A-7H. […] (A) Summation of whole cell tracings from AR42J cells loaded with Fluo-4AM and perifused with RC (iohexol; 10-25%). (B, D) Quantification of amplitude and area under the curve. (C) RC (25%)-induced acinar cell Ca^2+ signals were prevented by the PLC inhibitor U73122 (5 μM) and the IP3R inhibitor 2-APB (100 μM). (n=20-30 cells per condition). *, # P<0.05 relative to 10% RC or RC alone, respectively. AR42J cells were infected with Ad-NFAT-luciferase and stimulated with RC at (E) increasing concentrations. […] (n=3). *, #, P<0.05, relative to the control or RC alone, respectively.
Acinar cells were loaded at room temperature with the high-affinity Ca^2+-sensing dye Fluo-4AM (Kd=300 nM; Invitrogen). Acinar cells were plated on acid-washed glass coverslips and then mounted on a perifusion chamber. Thereupon, they were stimulated at room temperature with varying concentrations of RC (17-50%) diluted in HEPES buffer. Carbachol (1 mM) was given at the end of each experiment to confirm that the cells were intact and could mobilize intracellular Ca^2+ stores. A Zeiss LSM710 laser scanning confocal microscope was used with a […], 1.4 numerical aperture objective. […] Fluorescence from individual acinar cells was recorded. Analysis of recordings was performed using ImageJ software (NIH, Bethesda, Md.), and mean fluorescence over time in each region was graphed.

[7] = test system: calcineurin; assay: NFAT-luciferase activity assay in mouse primary acinar cells; format: cell-based
Description: as §1

[8] = test system: mouse pancreatic acinar cells; assay: Ca2+ signals (Fluo-4AM) in mouse pancreatic acinar cells; format: cell-based; settings: 25% and 33% RC; peak-plateau Ca2+ waves
Description: Acinar cells were loaded at room temperature with the high-affinity Ca^2+-sensing dye Fluo-4AM (Kd=300 nM; Invitrogen). Acinar cells were plated on acid-washed glass coverslips and then mounted on a perifusion chamber. Thereupon, they were stimulated at room temperature with varying concentrations of RC (17-50%) diluted in HEPES buffer. Carbachol (1 mM) was given at the end of each experiment to confirm that the cells were intact and could mobilize intracellular Ca^2+ stores. A Zeiss LSM710 laser scanning confocal microscope was used with a […], 1.4 numerical aperture objective. The dye was excited at 488 nm wavelength, and emission signals of >515 nm were collected every 2 sec. Fluorescence from individual acinar cells was recorded. Analysis of recordings was performed using ImageJ software (NIH, Bethesda, Md.), and mean fluorescence over time in each region was graphed.
Groups of pancreatic acinar cells were isolated as previously described 26, 69 with minor modifications. Briefly, the pancreas was removed, and then minced for 5 min in buffer containing 20 mM HEPES (pH 7.4), 95 mM NaCl, 4.7 mM KCl, 0.6 mM MgCl2, 1.3 mM CaCl2=, 10 mM glucose, and 2 mM glutamine, plus 1% BSA, 1×MEM nonessential amino acids (GIBCO/BRL), 200 units/ml type-4 collagenase (Worthington, Freehold, N.J.), and 1 mg/ml soybean trypsin inhibitor. The tissue was incubated for 30 min at 37° C. with shaking at 90 rpm. […]

[9] = test system: pancreatic acinar cells; assay: ATP level measurements in acinar cells; format: cell-based, mouse; settings: RC, concentration dependent
Description: Following isolation, pancreatic acinar cells were cultured in DMEM/F12 Medium (0.5 ml/well of a 48-well plate) at 37° C. water bath and treated with RC±FK506. Cells were collected at indicated time points and lysed in 100 lysis buffer (100 mM Tris pH 7.75, 4 mM EDTA). ATP levels were measured from 20 μl aliquots of acinar cell lysates using the ENLITEN luciferase/luciferin reagent (Promega catalog no. FF2021).

[10] = test system: pancreatic NF-κB; assay: Imaging pancreatic NF-κB bioluminescence in vivo; parameters: species or system mouse; settings: 4 hr after surgery, region of the pancreas
Description: An AAV6-NF-κB-luciferase reporter was constructed, expanded in HEK293 cells, and purified as previously described^18-20, 39. A volume of 100 μl of virus (10^12 GCP/ml) was infused into the pancreaticobiliary duct at a rate of 10 μl/min using the same technique of RC infusion described above and recently published^21, 39. After a 5-week recovery from the surgery, mice underwent PEP induction with or without FK506 treatment. At varying time points after the surgery, ranging from 2 to 36 hr, bioluminescence signals were obtained by first giving a subcutaneous injection of luciferin (150 μg/g body weight) in the scruff of the neck 15 min before the start of imaging. The mice were briefly anesthetized with isoflurane and placed in the supine position in a bioluminescent imaging chamber (IVIS spectrum imager; Perkin Elmer, Waltham, Mass.) for 3-10 min. Average pixel intensity was measured from a pancreatic region of interest (in the upper abdomen). Raw time points from each mouse were normalized to its individual baseline intensity at time zero.

[11] = test system: calcineurin; assay: NFAT-luciferase activity assay in human acinar cells; format: cell-based
Description: as §1

[12] = varying concentrations of iopamidol

OC[C@@H](O)[C@@H](O)[C@H](O)[C@H](O)CO [mannitol]
NF-κB increase at equimolar concentrations ([1]; osmolality control, equimolar to RC): failed to cause an increase

CC(=O)OCOC(=O)CN(CC(=O)OCOC(C)=O)c1ccc(C)cc1OCCOc1cc(-c2c3cc(F)c(=O)cc-3oc3cc(OCOC(C)=O)c(F)cc23)ccc1N(CC(=O)OCOC(C)=O)CC(=O)OCOC(C)=O [Fluo-4AM]
Kd [2]: 300 nM

C[C@H](O)C(=O)Nc1c(I)c(C(=O)NC(CO)CO)c(I)c(C(=O)NC(CO)CO)c1I [iopamidol]
NF-κB activation [1, 12]: concentration-dependent | induction of pancreatitis ([3]; intra-ductal infusion, 24 hr): induces pancreatitis | NFAT activation [4, 12]: concentration-dependent

CCCCCCCCCCC[C@@H](C[C@@H]1OC(=O)[C@H]1CCCCCC)OC(=O)[C@H](CC(C)C)NC=O [Orlistat]
effect of pretreatment on RC-induced NF-κB activation ([1]; NAC 2-12 mM, Orlistat 50-100 μM, RC 16%): did not significantly reduce

COc1ccc2c(c1)c(CC(=O)O)c(C)n2C(=O)c1ccc(Cl)cc1 [indomethacin]
effect of FK506 compared with therapeutic indomethacin on RC-induced pancreatitis ([3]; FK506 1 mg/kg, indomethacin 7 mg/kg IP after RC infusion): as robust

COc1ccc2c(c1)CC[C@@H]1[C@@H]2CC[C@]2(C)[C@@H](NCCCCCCN3C(=O)C=CC3=O)CC[C@@H]12 [U73122]
effect on RC-induced NF-κB luciferase levels [1]: reduced | effect on RC (12%)-induced acinar cell injury (PI uptake) [5]: prevented | effect on RC (25%)-induced acinar cell Ca2+ signals [6]: prevented | effect on RC (6%)-induced NFAT-luciferase activity [4]: prevented

NCCOB(c1ccccc1)c1ccccc1 [2-APB]
effect on RC-induced NF-κB luciferase levels [1]: reduced | effect on RC (12%)-induced acinar cell injury (PI uptake) [5]: prevented | effect on RC (25%)-induced acinar cell Ca2+ signals [6]: prevented | effect on RC (6%)-induced NFAT-luciferase activity [4]: prevented | reduction of RC-induced luciferase rise ([7]; 2-APB 100 μM, P<0.05): 47%

CC(=O)N(CC(O)CO)c1c(I)c(C(=O)NCC(O)CO)c(I)c(C(=O)NCC(O)CO)c1I (stereo not drawn) [RC, iohexol]
increase in NF-κB luciferase above baseline ([1]; 25% RC for 10 min, followed by washout): 5 fold | increase in NF-κB luciferase above baseline ([1]; 25% RC for 60 min, P<0.05): 58 fold | increase in NF-κB luciferase above baseline ([1]; 25% RC for 90 min, P<0.05): 59 fold | increase in NF-κB luciferase above baseline ([1]; 25% RC for 120 min, P<0.05): 112 fold | rise in NF-κB ([1]; at 350 mOsm/L): 300 fold | PI uptake ([5]; RC exposure for 6 hr): concentration-dependent increase | severity of pancreatitis at pH 6 compared to pH 7 ([3]; RC buffered with 10 mM HEPES, pH clamped at 6): no increased severity | increase in histological severity above the intra-ductal NS sham control ([3]; intra-ductal RC, doubled rate and volume, 24 hr after procedure): 59% | serum amylase increase ([3]; intra-ductal RC, 6 hr post-procedure): at least 50% | Ca2+ signal amplitude above baseline [8]: 400% | ATP levels [9]: depletion | peak in NF-κB luciferase compared to NS sham [10]: 13 fold

CC(=O)OCOC(=O)CN(CC(=O)OCOC(C)=O)c1ccccc1OCCOc1ccccc1N(CC(=O)OCOC(C)=O)CC(=O)OCOC(C)=O [BAPTA-AM]
effect on RC-induced NF-κB luciferase levels [1]: reduced | effect on RC (12%)-induced acinar cell injury (PI uptake) [5]: prevented | effect on RC (6%)-induced NFAT-luciferase activity [4]: prevented | effect on RC-induced rise in NFAT-luciferase ([7]; 30 min pre-treatment, FK506 24 μM, CsA 16 μM, BAPTA-AM 64 μM): completely reduced | effect on RC (25%)-induced NFAT-luciferase activity [11]: prevented
